Values quoted from earlier work as cited in patent publication US6761903B2, “Clear oil-containing pharmaceutical compositions containing a therapeutic agent” (Lipocine, Inc., priority 1999, dated 2004).
Where two headings read alike, the source gives them in different places.

[1] = water having a pH at about 7 and below

solubility in water [1]	Structure (SMILES)	solubility in water
practically insoluble	C[C@H](CCC(=O)O)[C@H]1CC[C@H]2[C@@H]3[C@H](O)C[C@@H]4C[C@H](O)CC[C@]4(C)[C@H]3CC[C@]12C [CDCA, chenodeoxycholic acid]	–
practically insoluble	C[C@H](CCC(=O)O)[C@H]1CC[C@H]2[C@@H]3[C@@H](O)C[C@@H]4C[C@H](O)CC[C@]4(C)[C@H]3CC[C@]12C [UDCA, ursodeoxycholic acid]	–
–	CCCCCCCC/C=C\CCCCCCCC(=O)OCC(O)CO (stereo not drawn) [glycerol monooleate]	practically water insoluble
